Earlier results in patent publication US10646533B2, “Absorption enhancer for polyphenol” (priority 2015, dated 2020).
Like-named read-outs stand apart in the source and are kept apart here.

Tests used:
[1] = orally ingested, rat
[2] = orally ingested, human

migration rate into blood [1]: about 2%
migration rate into blood [2]: about 2%
SMILES: O=C(O[C@@H]1Cc2c(O)cc(O)cc2O[C@@H]1c1cc(O)c(O)c(O)c1)c1cc(O)c(O)c(O)c1 [epigallocatechin gallate]
